Data set [1] deals with behavioral signature. The data set can be described thus: SmartCube phenotypic screening (class/subclass and DRFA similarity analysis). It counts as in vivo, male C57/B16 mice. The method, then:
A study was conducted to evaluate the CNS-like efficacy of novel test compounds using the SmartCube® System.
Animals. Male C57/B16 mice from Taconic Laboratories (Germantown, NY) were used. Upon receipt, mice were group-housed in OPTIMice® ventilated cages with 4 mice per cage. Mice were acclimated to the colony room for at least one week prior to test, and subsequently tested at approximately 8-9 weeks of age. All animals were examined, handled, and weighed prior to initiation of the study to assure adequate health and suitability and to minimize nonspecific stress associated with manipulation. During the course of the study, 12/12 light/dark cycles were maintained. The room temperature was 20-23° C. with a relative humidity maintained between 30-70%. Chow and water were provided ad libitum for the duration of the study.
Test compounds. All compounds were administered orally at a dose volume of 10 mL/kg, 20 minutes prior to testing. Formulations were prepared fresh on day of testing and dosing was completed within one hour of formulation. Compounds were prepared according to the table below. Twelve mice were used in each treatment group:
SmartCube®. The SmartCube® system is designed to and can successfully measure numerous spontaneous behaviors and response to challenges in the same testing environment. The hardware includes force sensors and a number of aversive stimuli to elicit behavior. Three high-resolution video cameras provide constant 3D view of the mouse in the SmartCube® apparatus (SC) throughout the entire testing period. During the 45-minute test session the mice are exposed to a sequence of challenges. The cubes are cleaned between each run.
Digital videos of the subjects were processed through computer segmentation algorithms to fit geometrical models to each mouse frame image. The resulting fitted parameters were then analyzed using behavioral classifier algorithms to extract behavioral states, such as rearing, locomotion, and immobility. The data obtained in this way was used to define a drug signature for PGI's known reference compounds and establish a therapeutic class signature against which a test sample can be compared.
The data mining effort utilizes several analytical methods including Bayesian probabilistic density models and Decision trees. The algorithms consider ˜2,600 measures including frequency and duration of behavioral states such as grooming, rearing, etc., and many other features obtained during the test session.
Two major types of analyses are routinely conducted: Class and subclass.
Each reference drug was tested at multiple doses appropriate for that drug in mice.
Multiple analyses of the data were performed to quantitatively produce independent predictions of drug class, and drug subclass. The behavioral signatures of the test drugs were evaluated using these classifiers to predict potential therapeutic utility.
The results for the class and subclass analyses are presented as standardized bar charts with percentages that sum to 100 for each dose.
Similarity Analysis Using “Clouds Framework”. The outcome from SmartCube® is a large set of features (behavioral parameters) that can be used for various analyses. […] Therefore, we formed statistically independent combinations of the original features (further referred to as de-correlated features). Each de-correlated feature extracted information from the whole cluster of the original features, so the new feature space would have lower dimensionality. Next, we applied a proprietary feature ranking algorithm to score each feature for its discrimination power (ability to separate the two groups, e.g. vehicle from treatment). Ranking is an important part of our analyses because it weighs each feature change by its relevance. We applied a feature ranking algorithm, derived from support vector in the support vector machine learning method, to rank each feature.

For data set [2], the system named is anxiety-like behavior. The data set can be described thus: Elevated plus maze (EPM). The settings on record: for Closed arm entries / Closed arm returns / Head dips in open arms / Stretch-attend postures / Time in closed arms / Time in open arms / Total arm entries: mean; for % Time in open arms / Open Arm Entries / Total distance travelled: mean ± S.E.M. It counts as in vivo, male Wistar rats.

Data set [3] concerns sleep/wake and cataplexy. It counts as in vivo, male DTA mice. To be noted: amphetamine 2 mg/kg i.p.
Data set [4] can be described thus: PK of S-viloxazine after single PO administration. To be noted: for Tmax: 40 mg/kg. The method, then: Study Design. […] Food was returned 2 hours post-dose.
Test Article Formulation.

For data set [5], the system named is prepulse inhibition. The data set can be described thus: Prepulse inhibition (PPI) of the auditory startle response, apomorphine-impairment model. To be noted: for % PPI (mean ± SEM): averaged across prepulse levels.
Procedure: Four standard startle chambers (San Diego Instruments, San Diego, CA) were used. […] The tube is mounted on a plastic frame, under which a piezoelectric accelerometer is mounted, which records and transduces the motion of the tube. Three days before drug testing the experimental subjects were each placed in one of the startle test chambers for a period of 10 minutes (without any startle stimuli) as an initial period of acclimation to the apparatus. Two days before drug testing the animals were again placed in the test chamber and then exposed to 12 startle stimuli and to each prepulse level 3 times (see below). This procedure was done to reduce the highly variable responses to the initial exposures to the startle stimuli as well as to ensure that the prepulse stimuli (alone) had no significant effect on the startle response. One day before drug testing, a full 60 trial PPI test session (as subsequently described for the drug testing experiments, see below) was conducted for all experimental subjects.
On the day of drug testing the rats were transported to the startle chamber room and left undisturbed for at least 30 min. […] After this period, the rats received 12 startle trials, 12 no-stimulus trials, and 12 trials of each of the prepulse/startle trials (see below) for a total of 60 trials. The intertrial interval ranged from 10 to 30 s, and the total session lasted about 25-30 min. The startle trials consisted of single 120 dB white noise bursts lasting 20 ms.
The prepulse inhibition trials consisted of a prepulse (20 ms burst of white noise with intensities of 75, 80, or 85 dB) followed, 100 ms later, by a startle stimulus (120 dB, 20 ms white noise). During the no-stimulus trial, no startle noise was presented, but the movement of the rat was recorded. This represented a control trial for detecting differences in overall activity. The 60 different trials were presented pseudo-randomly, ensuring that each trial was presented 12 times and that no two consecutive trials were identical. The resulting movement of the rat in the startle chamber was measured during 100 ms after startle stimulus onset (sampling frequency 1 kHz), rectified, amplified, and fed into a computer that determined the maximal response that occurred during the 100-ms period. Basal startle amplitude was determined as the mean amplitude of the 12 startle trials. Prepulse inhibition was calculated according to the formula 100−100%×(PPx/P120), in which PPx is the mean of the 12 prepulse inhibition trials (i.e., for each individual prepulse level), and p120 is the basal startle amplitude. The average level of PPI was also calculated (average of the responses to pp75, pp80, or pp85) and analyzed separately.
Setting [6] is: DRFA dose by dose, maximum (COMPOUND A: 90 and 120 mg/kg).
[7] abbreviates: Study 1, 0.5 mg/kg i.p. 30 min before testing.
Setting [8] is: Study 2, 0.5 mg/kg i.p. 30 min before testing.
Where [9] appears, read: S(−)-VLX in plasma, 40 mg/kg PO, fasted rats.
The mark [10] stands for this setting: 15 mg/kg PO 20 min prior to EPM.
Setting [11] is: 30 mg/kg PO 20 min prior to EPM.
Where [12] appears, read: 60 mg/kg PO 20 min prior to EPM.
The mark [13] stands for this setting: haloperidol 0.3 mg/kg + apomorphine.
[14] abbreviates: vehicle + apomorphine 0.5 mg/kg s.c.

The structures appear in SMILES notation. Where a name gives a salt, the structure may show the parent alone.

Take `CCOc1ccccc1OCC1CNCCO1` (racemic) [Viloxazine, (R,S)-2-[(2-ethoxyphenoxy)methyl]morpholine, reference compound]: the “behavioral activity (class/subclass analysis)” value is on record as “low behavioral activity” in data set [1] (15 mg/kg PO); “moderate activity” in data set [1] (30 mg/kg PO); “high activity” in data set [1] (60 and 90 mg/kg PO). Besides, in data set [1] (setting [6]), the proximity to donepezil entry is “around 100%”. Besides, the proximity to thioperamide entry in data set [1] (setting [6]) is “around 100%”. In addition, in data set [1] (DRFA dose by dose, maximum reached), the proximity to memantine is listed as 57%.

With `Cc1ncc2n1-c1ccc(Cl)cc1C(c1ccccc1F)=NC2` [midazolam], in data set [2] (setting [7]), the Closed arm entries is reported as 14.13, the Closed arm returns is reported as 1.38, the “Head dips in open arms” value came to 7.00 and the Stretch-attend postures is on record as 18.88. For the same molecule, in data set [2] (setting [7]), the “Time in closed arms” value is 247.54 s, the “Time in open arms” value came to 18.47 s, the Total arm entries was 16.75 and the “% Time in open arms” value is 6.16 ± 1.96 %. In addition, in data set [2] (setting [7]), the “Open Arm Entries” value worked out at 2.63 ± 0.78 and the Total distance travelled came to 2064.55 ± 111.02 cm. Besides, in data set [2] (setting [8]), the Closed arm entries is 13.89, the Closed arm returns is 1.44, the “Head dips in open arms” value is given as 5.67 and the Stretch-attend postures is recorded as 20.33. In data set [2] (setting [8]), the “Time in closed arms” value was 259.11 s, the “Time in open arms” value came to 18.38 s, the Total arm entries is 16.22 and the “% Time in open arms” value is 6.13 ± 1.80 %. For the same molecule, in data set [2] (setting [8]), the “Open Arm Entries” value was found to be 2.33 ± 0.60 and the Total distance travelled was determined as 2052.96 ± 791.05 cm. Also, the anxiolytic activity entry in data set [2] (midazolam 0.5 mg/kg i.p., both studies) is reported as “exhibited anxiolytic activity”.

As to `C[C@H](N)Cc1ccccc1` [Amphetamine, d-Amphetamine sulfate, reference compound], in data set [3], the LMA result is on record as “overall increase in LMA”; the “Levels of C” value is listed as “generally unaffected”; the “W and NREM time” value is “increased W and decreased NREM”; the “latency to sleep onset” value is “increased latency to the onset of both NREM and REM sleep”.

With `CCOc1ccccc1OC[C@@H]1CNCCO1` [S(−)-VLX], in data set [4] (setting [9]), the AUC0-last turned out to be 3594 ± 1641 ng·h/mL, the AUC(0-inf) (usually the area under the concentration-time curve extrapolated to infinity) came out at 3600 ng·h/mL, the AUCExtra turned out to be 0.20% and the AUMCExtra is recorded as 1.64%. Moreover, in data set [4] (setting [9]), the Cmax (commonly the peak of the concentration-time curve) was 2973 ± 1201 ng/mL, the MRT0-inf was determined as 1.12 h, the MRT0-last came to 1.10 ± 0.106 h and the T1/2 amounted to 58.2 ± 16.3 min. Besides, in data set [4] (setting [9]), the Tlast was 8.00 h and the Tmax (commonly the time at which the peak concentration occurs) turned out to be 25.2 min. Moreover, the Tmax in data set [4] (S(−)-VLX in plasma, 40 mg/kg PO, fasted rats, listed as S-Viloxazine) came out at 25 ± 8.64 min. For the same molecule, in data set [4] (after S-Viloxazine 40 mg/kg PO, LLOQ 1.5 ng/mL), the “enantiomer R(+) VLX in plasma” value is given as “not detectable at any time points”. Besides, in data set [2] (setting [10]), the Closed arm entries is recorded as 7.13, the Closed arm returns is listed as 2.13, the “Head dips in open arms” value is 1.38 and the Stretch-attend postures came to 17.13. In data set [2] (setting [10]), the “Time in closed arms” value was 289.33 s, the “Time in open arms” value was determined as 1.08 s, the Total arm entries is given as 7.25 and the “% Time in open arms” value stood at 0.36 ± 0.36%. For the same molecule, in data set [2] (setting [10]), the “Open Arm Entries” value came to 0.13 ± 0.13 and the Total distance travelled was found to be 1334.42 ± 90.911 cm. For the same molecule, in data set [2] (setting [11]), the Closed arm entries came out at 7.88, the Closed arm returns is 2.75, the “Head dips in open arms” value was 3.38 and the Stretch-attend postures came out at 19.38. Also, in data set [2] (setting [11]), the “Time in closed arms” value is 277.60 s, the “Time in open arms” value came to 6.11 s, the Total arm entries was 8.25 and the “% Time in open arms” value is reported as 2.04 ± 1.60%. For the same molecule, in data set [2] (setting [11]), the “Open Arm Entries” value is 0.38 ± 0.26 and the Total distance travelled worked out at 1334.22 ± 68.23 cm. Moreover, in data set [2] (setting [12]), the Closed arm entries is on record as 6.00, the Closed arm returns was 3.50, the “Head dips in open arms” value was 2.88 and the Stretch-attend postures amounted to 16.38. For the same molecule, in data set [2] (setting [12]), the “Time in closed arms” value was found to be 279.11 s, the “Time in open arms” value was 6.43 s, the Total arm entries was 6.50 and the “% Time in open arms” value is 2.14 ± 1.52%. Also, in data set [2] (setting [12]), the “Open Arm Entries” value is reported as 0.50 ± 0.38 and the Total distance travelled came out at 1350.11 ± 96.17 cm. The anxiolytic activity result in data set [2] (S-VLX 15, 30, 60 mg/kg p.o.) is reported as “None of the doses of S-Viloxazine were associated with anxiolytic activity”. For the same molecule, in data set [2] (S-VLX 15, 30, and 60 mg/kg p.o.), the “total distance traveled vs vehicle” value is given as “travelled a significantly shorter distance”.

In the case of `O=C(CCCN1CCC(O)(c2ccc(Cl)cc2)CC1)c1ccc(F)cc1` [HAL, haloperidol, reference compound], in data set [5] (setting [13]), the “Acoustic Startle (AU) (mean ± SEM)” value was 1774.3 ± 770.6 AU and the “% PPI (mean ± SEM)” value is 55.2 ± 6.3 ^+ %. Moreover, the “effect on apomorphine-induced PPI deficit” value in data set [5] (haloperidol 0.3 mg/kg, 75, 80 and 85 dB prepulse levels) is given as “significantly antagonized the effects of apomorphine on PPI”.

Take `CN1CCc2cccc3c2[C@H]1Cc1ccc(O)c(O)c1-3` [APO, apomorphine, reference compound]: in data set [5] (apomorphine 0.5 mg/kg s.c., all three prepulse levels), the “effect on PPI compared to vehicle” value is “significantly (p<0.05) diminished PPI”. Moreover, in data set [5] (setting [14]), the “Acoustic Startle (AU) (mean ± SEM)” value was 1546.1 ± 260.5 AU and the “% PPI (mean ± SEM)” value was found to be 33.4 ± 5.5 %.

For the origin of these results see patent publication US20240343699A1, “DERIVATIVES OF SUBSTITUTED MORPHOLINES AND USES THEREOF” (Supernus Pharmaceuticals, Inc., priority 2023, published 2024).
